Measurements taken from patent US4621077A, “Pharmacologically active biphosphonates, process for the preparation thereof and pharmaceutical compositions therefrom” (Istituto Gentili S.p.A., priority 1982, dated 1986).
“Also recorded” adds a separate entry of the source. Where two headings read alike, the source gives them in different places.

Experiments:
in vivo = details: mouse, Swiss mice, read-out: DL50 (the source's name)
Method: For this study Swiss mice, both male and female, have been utilized: during the experiment, the animals are fed according to the method with Altromin in the form of tablets. For the oral and intraperitoneal administration, there are used 5% gum arabic solutions while saline solutions of pH 4 are used for the intravenous injections.
The preliminary values of DL50 are calculated according to a graphic method.

[1] = system: bone reabsorption and mineralization (tibia, trabecular metaphysis); format: in vivo, Wistar rats; details: for effect on bone reabsorption, in words: rat, in vivo
Method: Groups of five Wistar rats of weight 180-200 grams are treated for a period of seven days with 0.1, 1.0 and 10 mg of P/kg of the following biphosphonic acids:
The animals kept as a control were administered the solvent with NaCl. All the treatments were carried out by the subcutaneous route. […] The animals were fed with Altromine 1314 containing 1.1 g/100 g P and 250 IU/100 g of vitamin D3. On the eighth day, the animals were killed and the tibia was removed and fixed in 50% ethanol. The tibiae were then dehydrated in increasing concentration of ethanol and allowed to soak in methylmethacrylate after the addition of Plastoid N. Frontal sections were removed and cut to a thickness of 70-80 μm and then the sections were submitted to microradiography. This procedure permitted to evaluate the density of the mineral in the trabecular metaphysis according to the method of Shenk et al., Calc. Tiss. Res. 11, 196-214, 1973).
One animal per group has been evaluated.

skull cells = experiment: cells; format: cell-based, Wistar rats
Method: (§1) Cellular culture: the cells are cultured according to the method described by Fast et al, (Biochem. J. 172, 97-107 (1978)). By way of summary, the skulls removed from Wistar rats, one day old, are digested with collagenase. The cells set free are placed on a plate with concentration of 200,000 cells per cc of medium in disks "clusters" suitable for culture, the plates having 24 wells of 1.6 cm in diameter containing 0.5 cc of medium. The cells are cultivated in the essential minimum medium containing 10% of foetal calf serum in an atmosphere of 5% CO2 at 37° up to the eighth day. The bisphosphonates are added on the first day up to the end of the experiment. The medium is changed on the first, fourth and seventh day.
The cells are counted with a Coulter counter after they have been set free from the disks by digestion with a mixture of collagenase and trypsin.

[2] = system: bone reabsorption (metaphyseal bone density); experiment: Metaphyseal bone density / inhibition of bone reabsorption in rats treated for 7 days; format: in vivo; details: 7 days, rats
[3] = 37° C., two days, control 29, prior to incubation 114.7
Method: A model system is used to evaluate the ability of the phosphonates to inhibit the formation of crystals in inorganic solutions. Three solutions are prepared according to Fleisch.
The pH is brought to 7.4 by means of potassium hydroxide. The concentration of Ca^++ was 6.7 mg%, a level similar to the calcium in blood which has been subjected to untrafiltration and the concentration of the inorganic phosphate Pi give a product Ca^++ ×Pi=80. The solution was analyzed for Ca^++ and Pi and was distributed in Erlenmeyer flasks 12 cc each. The flasks were divided in groups as follows:
and then they are incubated under stirring at 37° C. for two days.
At the end of incubation, the solutions are passed through "millipore filters" for the purpose of retaining the ctystals which are formed during the incubation; the filtrate then is analyzed for Ca^++ and Pi. The results are also reported in Table 2 as the product of Ca^++ x Pi in the solution at the end of the experiment.

[4] = system: skull cells (lactate production); experiment: cells; format: cell-based, Wistar rats
Method: as §1
On the seventh day, the medium is changed and the cells are incubated for 16 hours. The lactate produced during this period is measured in an extract in HClO4 of the medium using lactatodehydrogenase.

injection sites / skin = experiment: Necrosis at the injection sites in rats (local skin toxicity)
Source text: The symbol "x" represents a conventional score, that is "x" meand slight necrosis, "xx" means severe necrosis, "xxx" means very severe necrosis.

[5] = Rattus norvegicus, read-out: Effect on the cellular number ± S.E.M.
[6] = 0.01 mg P/kg s.c., s.c. NaCl controls 29.72
[7] = 0.1 mg P/kg s.c., s.c. NaCl controls 29.72
[8] = 1.0 mg P/kg s.c., s.c. NaCl controls 29.72
[9] = 2.0 mg P/kg p.o., p.o. NaCl controls 28.45
[10] = Rattus norvegicus, 16 h, read-out: Effect on the production of lactate ± S.E.M.

Work on NCCCCCC(O)(P(=O)(O)O)P(=O)(O)O [AHEX BP, 6-amino-1-hydroxyhexane-1,1-biphosphonic acid] yielded an LD50 (in vivo; ip) of 125 mg/kg, an LD50 (in vivo; iv) of 75 mg/kg and an LD50 (in vivo; po, os) greater than 2000 mg/kg. The “effect on mineralization, in words” value ([1]; 10 mg of P/kg / high dosage where stated) was “strong inhibition of mineralization; also recorded: exhibits high inhibition”, the “effect on bone reabsorption, in words” value [1] was “active on the reabsorption with a result slightly superior to Cl2 MBP” and the activity at 2.5 µM (skull cells; [5]) was 93.3 ± 3%. The activity at 25 µM (skull cells; [5]) was 95.2 ± 2.2%, the activity at 250 µM (skull cells; Rattus norvegicus, 250 μM, read-out: Effect on the cellular number ± S.E.M.) was 87 ± 3.4% and the metaphysical density [2, 6] was 38.12 % volume of calcified tissue. The metaphysical density [2, 7] was 46.96 % volume of calcified tissue, the metaphysical density [2, 8] was 54.93 % volume of calcified tissue and the metaphysical density [2, 9] was 34.69 % volume of calcified tissue. The “product Ca++ × Pi in solution after incubation” value (“product Ca++ × Pi in solution” below) ([3]; 0.05 μM) was 30.0, the “product Ca++ × Pi in solution” value ([3]; 0.25 μM) was 37.5 and the “product Ca++ × Pi in solution” value ([3]; 0.5 μM) was 59.6. The “product Ca++ × Pi in solution” value ([3]; 2.5 μM) was 92.6, the “product Ca++ × Pi in solution” value ([3]; 5.0 μM) was 95.3 and the activity at 2.5 µM [4, 10] was 109 ± 6%. For the same compound, the activity at 25 µM [4, 10] was 108 ± 4.5%, the activity at 250 µM ([4]; Rattus norvegicus, 16 h, 250 μM, read-out: Effect on the production of lactate ± S.E.M.) was 165 ± 7.7% and the “necrosis at the injection sites” value (injection sites / skin; 0.01 mg P/kg, 1 day) was “.0”. The “necrosis at the injection sites” value (injection sites / skin; 0.01 mg P/kg, 2 day) was “.0”, the “necrosis at the injection sites” value (injection sites / skin; 0.01 mg P/kg, 3 day) was “.0” and the “necrosis at the injection sites” value (injection sites / skin; 0.01 mg P/kg, 4 day) was “.0”. The “necrosis at the injection sites” value (injection sites / skin; 0.01 mg P/kg, 5 day) was “.0”, the “necrosis at the injection sites” value (injection sites / skin; 0.01 mg P/kg, 6 day) was “.0” and the “necrosis at the injection sites” value (injection sites / skin; 0.01 mg P/kg, 7 day) was “.0”. For the same compound, the “necrosis at the injection sites” value (injection sites / skin; 0.1 mg P/kg, 1 day) was “.0”, the “necrosis at the injection sites” value (injection sites / skin; 0.1 mg P/kg, 2 day) was “.0” and the “necrosis at the injection sites” value (injection sites / skin; 0.1 mg P/kg, 3 day) was “.0”. For the same compound, the “necrosis at the injection sites” value (injection sites / skin; 0.1 mg P/kg, 4 day) was “.0”, the “necrosis at the injection sites” value (injection sites / skin; 0.1 mg P/kg, 5 day) was “.0” and the “necrosis at the injection sites” value (injection sites / skin; 0.1 mg P/kg, 6 day) was “.0”. For the same compound, the “necrosis at the injection sites” value (injection sites / skin; 0.1 mg P/kg, 7 day) was “.0”, the “necrosis at the injection sites” value (injection sites / skin; 1 mg P/kg, 1 day) was “.0” and the “necrosis at the injection sites” value (injection sites / skin; 1 mg P/kg, 2 day) was “.0”. The “necrosis at the injection sites” value (injection sites / skin; 1 mg P/kg, 3 day) was “.0”, the “necrosis at the injection sites” value (injection sites / skin; 1 mg P/kg, 4 day) was “.0” and the “necrosis at the injection sites” value (injection sites / skin; 1 mg P/kg, 5 day) was “.0”. For the same compound, the “necrosis at the injection sites” value (injection sites / skin; 1 mg P/kg, 6 day) was “.0”, the “necrosis at the injection sites” value (injection sites / skin; 1 mg P/kg, 7 day) was “.0” and the “necrosis at the injection sites” value (injection sites / skin; 10 mg P/kg, 1 day) was “.0”. The “necrosis at the injection sites” value (injection sites / skin; 10 mg P/kg, 2 day) was “.0”, the “necrosis at the injection sites” value (injection sites / skin; 10 mg P/kg, 5 day) was “xxx” and the “necrosis at the injection sites” value (injection sites / skin; 10 mg P/kg, 6 day) was “xxx”. For the same compound, the “necrosis at the injection sites” value (injection sites / skin; 10 mg P/kg, 7 day) was “xxx” and the death of animals (injection sites / skin; 10 mg P/kg, 8 day) was “animals died spontaneously”.
With NCCCCC(O)(P(=O)(O)O)P(=O)(O)O [AHPE BP, 5-amino-1-hydroxypentan-1,1-biphosphonic acid] the LD50 (in vivo; ip) was 75 mg/kg, the LD50 (in vivo; iv) was 85 mg/kg and the LD50 (in vivo; po, os) was 1500 mg/kg. The “effect on bone reabsorption, in words” value [1] was “the most active in inhibiting the bone reabsorption”, the “toxicity during the bone reabsorption experiment” value ([1]; s.c., 10 mg of P/kg / higher dosage) was “Experiment interrupted due to acute toxicity; also recorded: a toxicity at the higher dosage” and the “Effect on the cellular number ± S.E.M.” value (skull cells; 250 μM) was “dead cells”. The activity at 2.5 µM (skull cells; [5]) was 103 ± 2.8%, the activity at 25 µM (skull cells; [5]) was 42.6 ± 5.1% and the metaphysical density [2, 6] was 37.85 % volume of calcified tissue. For the same compound, the metaphysical density [2, 7] was 50.44 % volume of calcified tissue, the metaphysical density [2, 8] was 56.47 % volume of calcified tissue and the metaphysical density [2, 9] was 38.70 % volume of calcified tissue. For the same compound, the “product Ca++ × Pi in solution” value ([3]; 0.05 μM) was 36.7, the “product Ca++ × Pi in solution” value ([3]; 0.25 μM) was 37.1 and the “product Ca++ × Pi in solution” value ([3]; 0.5 μM) was 68.6. For the same compound, the “product Ca++ × Pi in solution” value ([3]; 2.5 μM) was 94.0, the “product Ca++ × Pi in solution” value ([3]; 5.0 μM) was 97.5 and the “Effect on the production of lactate ± S.E.M.” value ([4]; 250 μM) was “dead cells”. For the same compound, the activity at 2.5 µM [4, 10] was 93.4 ± 3%, the activity at 25 µM [4, 10] was 354 ± 27.7% and the “necrosis at the injection sites” value (injection sites / skin; 0.01 mg P/kg, 1 day) was “.0”. For the same compound, the “necrosis at the injection sites” value (injection sites / skin; 0.01 mg P/kg, 2 day) was “.0”, the “necrosis at the injection sites” value (injection sites / skin; 0.01 mg P/kg, 3 day) was “.0” and the “necrosis at the injection sites” value (injection sites / skin; 0.01 mg P/kg, 4 day) was “.0”. For the same compound, the “necrosis at the injection sites” value (injection sites / skin; 0.01 mg P/kg, 5 day) was “.0”, the “necrosis at the injection sites” value (injection sites / skin; 0.01 mg P/kg, 6 day) was “.0” and the “necrosis at the injection sites” value (injection sites / skin; 0.01 mg P/kg, 7 day) was “.0”. The “necrosis at the injection sites” value (injection sites / skin; 0.1 mg P/kg, 1 day) was “.0”, the “necrosis at the injection sites” value (injection sites / skin; 0.1 mg P/kg, 2 day) was “.0” and the “necrosis at the injection sites” value (injection sites / skin; 0.1 mg P/kg, 3 day) was “.0”. The “necrosis at the injection sites” value (injection sites / skin; 0.1 mg P/kg, 4 day) was “.0”, the “necrosis at the injection sites” value (injection sites / skin; 0.1 mg P/kg, 5 day) was “.0” and the “necrosis at the injection sites” value (injection sites / skin; 0.1 mg P/kg, 6 day) was “.0”. For the same compound, the “necrosis at the injection sites” value (injection sites / skin; 0.1 mg P/kg, 7 day) was “.0”, the “necrosis at the injection sites” value (injection sites / skin; 1 mg P/kg, 1 day) was “.0” and the “necrosis at the injection sites” value (injection sites / skin; 1 mg P/kg, 2 day) was “.0”. For the same compound, the “necrosis at the injection sites” value (injection sites / skin; 1 mg P/kg, 3 day) was “.0”, the “necrosis at the injection sites” value (injection sites / skin; 1 mg P/kg, 4 day) was “.0” and the “necrosis at the injection sites” value (injection sites / skin; 1 mg P/kg, 5 day) was “.0”. The “necrosis at the injection sites” value (injection sites / skin; 1 mg P/kg, 6 day) was “.0”, the “necrosis at the injection sites” value (injection sites / skin; 1 mg P/kg, 7 day) was “.0” and the “necrosis at the injection sites” value (injection sites / skin; 10 mg P/kg, 1 day) was “xxx”. The “necrosis at the injection sites” value (injection sites / skin; 10 mg P/kg, 2 day) was “xxx”.
